Data reported in patent publication US20260337182A1, “COMPOUNDS AND COMPOSITIONS USEFUL AS INHIBITORS OF IAPs” (Tract Pharmaceuticals, Inc., priority 2022, published 2026).

Key:
[1] = tested on: pancreatic cancer stem cells; assay: percent survival of pancreatic cancer stem cells; assay type: cell-based, human; settings: varying concentrations; FIG. 9
From the text: FIG. 9 depicts treatment of pancreatic cancer with compounds I-9, I-10; I-3; I-11. FIG. 9 depicts the % survival of pancreatic cancer stem cells at varying concentrations of I-9; I-10; I-3; I-11.
(§1) The present example describes methods used for testing the efficacy of compounds described herein. The selective growth of stem cells of cancers, of their precursor lesions, and of normal and chronically diseased epithelial tissues is described in the references below. In brief, biopsied tissues are reduced to single cell suspensions and plated onto lawns of irradiated 3T3-J2 feeder cells in specialized StemEcho media and libraries of colonies are evident in 7-10 days. Single cell-derived clones are generated by single cell FACS sorting to 384 well plates and wells with individual colonies are expanded, analyzed by molecular genetics, and grown as discrete clones.
(§2) Approximately 400,000 cells from discrete clones relevant to particular disease states (cancer, chronic inflammatory disease) are plated into 384 plates previously seeded with irradiated feeder cells, allowed to grow for 5 days, and then exposed to the test compounds in a serial dilution format. After 2-5 days, the cells are fixed using paraformaldehyde and the human cells are labelled with human-specific antibodies followed by fluorochrome-labelled secondary antibodies. Human cell numbers are quantified via high-throughput imaging technology (CellInsight CX7 LED, Thermo), and data analyzed by Excel.

[2] = tested on: Barrett's esophagus cells; assay: percent survival of Barrett's esophagus cells; assay type: cell-based, human; settings: FIG. 1; for sensitivity of Barrett's esophagus cells compared to the other compounds of Table 1: versus other IAP inhibitors of Table 1
Description: FIG. 1 depicts treatment of Barrett's esophagus cells with compounds described herein. The concentration of the compound used and percent survival of the cells is provided.
Cells isolated from individuals diagnosed with or suffering from Barrett's esophagus were treated with the indicated compounds.
as §1, §2

[3] = tested on: esophageal adenocarcinoma stem cells; assay: percent survival of esophageal adenocarcinoma stem cells; assay type: cell-based, human; settings: FIG. 2; versus other IAP inhibitors of Table 1
From the text: FIG. 2 depicts treatment of esophageal adenocarcinoma stem cells with compounds described herein. The concentration of the compound used and percent survival of the cells is provided.
FIG. 6 depicts treatment of Barrett's low grade dysplasia and esophageal adenocarcinoma with compound I-1. FIG. 6A depicts the % survival of Barrett's low grade dysplasia stem cells at higher concentration of compound I-1. FIG. 6B depicts the % survival of Barrett's low grade dysplasia stem cells at lower concentration of compound I-1. FIG. 6C depicts the % survival of esophageal adenocarcinoma stem cells at higher concentration of compound I-1. […]
(§3) The present example describes methods used for testing the efficacy of compounds described herein. […] Single cell-derived clones are generated by single cell FACS sorting to 384 well plates and wells with individual colonies are expanded, analyzed by molecular genetics, and grown as discrete clones.
(§4) Approximately 400,000 cells from discrete clones relevant to particular disease states (cancer, chronic inflammatory disease) are plated into 384 plates previously seeded with irradiated feeder cells, allowed to grow for 5 days, and then exposed to the test compounds in a serial dilution format. […] Human cell numbers are quantified via high-throughput imaging technology (CellInsight CX7 LED, Thermo), and data analyzed by Excel.

[4] = tested on: advanced Barrett's esophagus stem cells; assay: percent survival of advanced Barrett's esophagus stem cells; assay type: cell-based, human
From the text: FIG. 4 depicts treatment of advanced Barrett's esophagus stem cells with compound I-1 in cells isolated from two different patients. FIG. 4A depicts the % survival of Barrett's esophagus stem cells from a first patient at higher concentration of compound I-1. FIG. 4B depicts the % survival of Barrett's esophagus cells from a first patient at lower concentration of compound I-1. FIG. 4C depicts the % survival of Barrett's esophagus cells from a second patient at higher concentration of compound I-1. FIG. 4D depicts the % survival of Barrett's esophagus stem cells from a second patient at lower concentration of compound I-1.
FIG. 7 depicts treatment of various diseases with compounds I-2 and I-5. FIG. 7A depicts % survival of diffused gastric adenocarcinoma with ascites cells with varying concentrations of compounds I-2 and I-5. FIG. 7B depicts % survival of advanced Barret's cells with varying concentrations of compounds I-2 and I-5. FIG. 7C depicts % survival of high-grade serous ovarian cancer cells with varying concentrations of compounds I-2 and I-5. […]
The present example describes methods used for testing the efficacy of compounds described herein. […] Single cell-derived clones are generated by single cell FACS sorting to 384 well plates and wells with individual colonies are expanded, analyzed by molecular genetics, and grown as discrete clones. […]

[5] = tested on: gastric cancer stem cells; assay: percent survival of (diffuse) gastric cancer stem cells; assay type: cell-based, human; settings: two individuals with diffuse gastric cancer; FIG. 7A, 7D
From the text: FIG. 7 depicts treatment of various diseases with compounds I-2 and I-5. FIG. 7A depicts % survival of diffused gastric adenocarcinoma with ascites cells with varying concentrations of compounds I-2 and I-5. FIG. 7B depicts % survival of advanced Barret's cells with varying concentrations of compounds I-2 and I-5. FIG. 7C depicts % survival of high-grade serous ovarian cancer cells with varying concentrations of compounds I-2 and I-5. FIG. 7D depicts % survival of gastric cancer with varying concentrations of compounds I-2 and I-5. FIG. 7E depicts % survival taxol resistant ovarian cancer stem cells with varying concentrations of compounds I-2 and I-5. […]
as §3, §4

[6] = tested on: lung adenocarcinoma stem cells; assay: percent survival of lung adenocarcinoma stem cells; assay type: cell-based, human; settings: FIG. 3A, 3B
Description: FIG. 3 depicts treatment of lung adenocarcinoma stem cells with compound I-1. FIG. 3A depicts the % survival of lung adenocarcinoma stem cells at higher concentration of compound I-1. FIG. 3B depicts the % survival of lung adenocarcinoma stem cells at lower concentration of compound I-1.
Specifically, lung adenocarcinoma stem cells from an additional individual were tested and treated at higher (nM) or low (pM) concentrations of I-1 (FIG. 3A and FIG. 3B).
The present example describes methods used for testing the efficacy of compounds described herein. The selective growth of stem cells of cancers, of their precursor lesions, and of normal and chronically diseased epithelial tissues is described in the references below. […] Single cell-derived clones are generated by single cell FACS sorting to 384 well plates and wells with individual colonies are expanded, analyzed by molecular genetics, and grown as discrete clones.
as §4

[7] = tested on: Barrett's high grade dysplasia stem cells; assay: percent survival of Barrett's high grade dysplasia stem cells; assay type: cell-based, human; settings: FIG. 5A, 5B
From the text: FIG. 5 depicts treatment of Barrett's high grade dysplasia and diffuse gastric cancer with compound I-1. FIG. 5A depicts the % survival of Barrett's high grade dysplasia stem cells at higher concentration of compound I-1. FIG. 5B depicts the % survival of Barrett's high grade dysplasia stem cells at lower concentration of compound I-1. FIG. 5C depicts the % survival of diffuse gastric cancer stem cells at higher concentration of compound I-1. FIG. 5D depicts the % survival of diffuse gastric cancer stem cells at lower concentration of compound I-1.
(§5) FIG. 8 depicts treatment of Barrett's low grade dysplasia and high grade dysplasia with compounds I-1; I-2; I-6; and I-3. […]
as §3, §4

[8] = tested on: Barrett's low grade dysplasia stem cells; assay: percent survival of Barrett's low grade dysplasia stem cells; assay type: cell-based, human; settings: FIG. 6A, 6B
From the text: FIG. 6 depicts treatment of Barrett's low grade dysplasia and esophageal adenocarcinoma with compound I-1. FIG. 6A depicts the % survival of Barrett's low grade dysplasia stem cells at higher concentration of compound I-1. FIG. 6B depicts the % survival of Barrett's low grade dysplasia stem cells at lower concentration of compound I-1. FIG. 6C depicts the % survival of esophageal adenocarcinoma stem cells at higher concentration of compound I-1. FIG. 6D depicts the % survival of esophageal adenocarcinoma cells at lower concentration of compound I-1.
as §5, §3, §4

cIAP1 = settings: inhibits cIAP1; cited from earlier work

CN[C@@H](C)C(=O)N[C@H](C(=O)N1CCC[C@H]1C(=O)N[C@H]1c2ccccc2C[C@H]1OCCCCCNc1c(NCCCCCO[C@@H]2Cc3ccccc3[C@@H]2NC(=O)[C@@H]2CCCN2C(=O)[C@@H](NC(=O)[C@H](C)NC)C2CCCCC2)c(=O)c1=O)C1CCCCC1 [I-3]
sensitivity of pancreatic cancer stem cells [1]: sensitive

CN[C@@H](C)C(=O)N[C@H](C(=O)N1CCC[C@H]1C(=O)N[C@H]1c2ccccc2C[C@H]1OCCNc1c(NCCO[C@@H]2Cc3ccccc3[C@@H]2NC(=O)[C@@H]2CCCN2C(=O)[C@@H](NC(=O)[C@H](C)NC)C2CCCCC2)c(=O)c1=O)C1CCCCC1 [I-2]
sensitivity of Barrett's esophagus cells [2]: particularly sensitive | sensitivity of Barrett's esophagus cells compared to the other compounds of Table 1 [2]: significantly more sensitive | sensitivity of esophageal adenocarcinoma stem cells compared to the other compounds of Table 1 [3]: significantly more sensitive | sensitivity of advanced Barrett's esophagus stem cells ([4]; additional individual, varying concentrations, FIG. 7B): notably sensitive | sensitivity of gastric cancer stem cells [5]: sensitive

CN[C@@H](C)C(=O)N[C@H](C(=O)N1CCC[C@H]1C(=O)N[C@H]1c2ccccc2C[C@H]1OCCOCCNc1c(NCCOCCO[C@@H]2Cc3ccccc3[C@@H]2NC(=O)[C@@H]2CCCN2C(=O)[C@@H](NC(=O)[C@H](C)NC)C2CCCCC2)c(=O)c1=O)C1CCCCC1 [I-1]
sensitivity of Barrett's esophagus cells [2]: particularly sensitive | sensitivity of Barrett's esophagus cells compared to the other compounds of Table 1 [2]: significantly more sensitive | sensitivity of esophageal adenocarcinoma stem cells compared to the other compounds of Table 1 [3]: significantly more sensitive | sensitivity of lung adenocarcinoma stem cells ([6]; higher (nM) or low (pM) concentrations): demonstrate the sensitivity | lethality compared with another highly potent cytotoxic treatment ([6]; higher and lower concentration): comparable lethality to another highly potent cytotoxic treatment | sensitivity of advanced Barrett's esophagus stem cells ([4]; two individuals, higher (nM) or low (pM) concentrations, FIG. 4A-4D): demonstrates the sensitivity | sensitivity of Barrett's high grade dysplasia stem cells [7]: sensitive | sensitivity of Barrett's low grade dysplasia stem cells [8]: sensitive

CN[C@@H](C)C(=O)N[C@H](C(=O)N1CCC[C@H]1C(=O)N[C@H]1c2ccccc2C[C@H]1OCCCNc1c(NCCCO[C@@H]2Cc3ccccc3[C@@H]2NC(=O)[C@@H]2CCCN2C(=O)[C@@H](NC(=O)[C@H](C)NC)C2CCCCC2)c(=O)c1=O)C1CCCCC1 [I-9]
sensitivity of pancreatic cancer stem cells [1]: sensitive

CN[C@@H](C)C(=O)N[C@H](C(=O)N1CCC[C@H]1C(=O)N[C@H]1c2ccccc2C[C@H]1OCCCCNc1c(NCCCCO[C@@H]2Cc3ccccc3[C@@H]2NC(=O)[C@@H]2CCCN2C(=O)[C@@H](NC(=O)[C@H](C)NC)C2CCCCC2)c(=O)c1=O)C1CCCCC1 [I-10]
sensitivity of pancreatic cancer stem cells [1]: sensitive

CN[C@@H](C)C(=O)N[C@H](C(=O)N1CCC[C@H]1C(=O)N[C@H]1c2ccccc2C[C@H]1OCCCCCCNc1c(NCCCCCCO[C@@H]2Cc3ccccc3[C@@H]2NC(=O)[C@@H]2CCCN2C(=O)[C@@H](NC(=O)[C@H](C)NC)C2CCCCC2)c(=O)c1=O)C1CCCCC1 [I-11]
sensitivity of pancreatic cancer stem cells [1]: sensitive

CN[C@@H](C)C(=O)N[C@H](C(=O)N1CCC[C@H]1c1nc(C(=O)c2ccc(F)cc2)cs1)C1CCCCC1 [LCL 161]
IC50 (cIAP1): 0.4 nM
